# Measured values taken from patent publication US10792633B2, “Composition comprising a fluorine-containing surfactant” (HWK-Kronbichler GmbH, priority 2016, dated 2020).
# Where two headings read alike, the source gives them in different places. Marks after values point to notes of the source that are not given here.
# What was measured:
# Format in all cases: physicochemical
# [1] = Determination of the static surface tension in water (Example 10); details: mean of 10
# Description: The determination of the static surface tension for 3-(1H,1H,2H,2H-perfluorooctyl)-2-((1H,1H,2H,2H-perfluorooctyl)thio)-1-methyl-1H-imidazolium chloride in water produced the values indicated in the following Table 6 for the surface tension (OFS) in […] at different concentrations c in wt %. The values for OFS represent the mean value from 10 measurements. The standard deviation S [mN/m] for these values is likewise indicated.
# [2] = Measurement of surface tension at suspended drop (Drop Shape Analyser DSA 25)
# Experimental: The surface tension was determined at suspended drop using a “Drop Shape Analyser DSA 25” of the Krüss corporation. The drop volume at most measurements amounted to approximately 5 μl. […] Each sample was measured a total of ten times. The standard deviations are marked by s in the table shown below. In the measurements at a concentration of 0.05 wt % surfactant, larger drop volumes were used in some cases to obtain a better reproducibility of the measurement results.
# [3] = Determining the solubility in water; details: for solubility at 5 min: water, 23 °C, thermodynamic from solid
# Experimental: The suspension was added to the ultrasound bath for 5 minutes and was centrifuged for 20 minutes. The supernatant was then weighed and was rinsed with argon for 5 minutes to remove any possibly dissolved oxygen. […] The experiment was performed at approximately 23° C.
# [4] = Solubility in organic solvents
# [5] = Use as an emulsifying agent for Teflon (stability of the suspension in water); details: 0.100 g surfactant and 0.200 g Teflon 1 μm in water
# Experimental: A solution of 10 ml water, 0.100 g 1-methyl-2-((1H,1H,2H,2H-perfluorooctyl)thio)-1H-imidazolium-2-acrylamido-2-methylpropanesulfonate was dissolved in 10 ml water and 0.200 g Teflon 1 μm (Sigmal-Aldrich) were subsequently added to this solution. A suspension was formed in this process that remained stable for at least 4 hours. After 2 days a white powder had been deposited on the bottom.
# [6] = surfactant in water 0.05 wt %, n = 10, drop approx. 5 μl, * 8 μl, ** 20 μl
# [7] = surfactant in water 0.5 wt %, n = 10, 24.5-25.1° C.
compound,measurement,setting,value
"Cn1cc[n+](CCC(F)(F)C(F)(F)C(F)(F)C(F)(F)C(F)(F)C(F)(F)F)c1SCCC(F)(F)C(F)(F)C(F)(F)C(F)(F)C(F)(F)C(F)(F)F.[Cl-] [3-(1H,1H,2H,2H-perfluorooctyl)-2-((1H,1H,2H,2H-perfluorooctyl)thio)-1-methyl-1H-imidazolium chloride]",OFS (static surface tension),[1]; c 0.0025 wt % in water,40.74 mN/m
same,OFS (static surface tension),[1]; c 0.0050 wt % in water,21.29 mN/m
same,OFS (static surface tension),[1]; c 0.0075 wt % in water,18.89 mN/m
same,OFS (static surface tension),[1]; c 0.0100 wt % in water,16.29 mN/m
same,OFS (static surface tension),[1]; c 0.0250 wt % in water,14.43 mN/m
same,OFS (static surface tension),[1]; c 0.0500 wt % in water,15.05 mN/m
same,OFS (static surface tension),[1]; c 0.0750 wt % in water,15.02 mN/m
same,OFS (static surface tension),[1]; c 0.1000 wt % in water,15 mN/m
same,OFS (static surface tension),[1]; c 0.2500 wt % in water,15.5 mN/m
same,OFS (static surface tension),[1]; c 0.5000 wt % in water,14.5 mN/m
"CS(=O)(=O)O.Cn1ccnc1SCCC(F)(F)C(F)(F)C(F)(F)C(F)(F)C(F)(F)C(F)(F)F [1-methyl-2-((1H,1H,2H,2H-perfluorooctyl)thio)-1H-imidazolium-methanesulfonate]",OFS (surface tension),[2]; [6],24.39 mN/m
same,OFS (surface tension),[2]; [7],16.21 mN/m
"N.O=C(O)C(F)(F)C(F)OC(F)(F)C(F)(F)C(F)(F)OC(F)(F)F (centres unmarked) [Ammonium-4,8-dioxa-3H-perfluorononanoate, reference compound]",OFS (surface tension),[2]; [6],64.87** mN/m
same,OFS (surface tension),[2]; [7],46.42 mN/m
"Cn1cc[n+](CCCS(=O)(=O)[O-])c1SCCC(F)(F)C(F)(F)C(F)(F)C(F)(F)C(F)(F)C(F)(F)F [Synthesis Example 6, 3-(1-methyl-2-((1H,1H,2H,2H-perfluorooctyl)thio)imidazolium-3-yl) propane-1-sulfonate]",solubility at 5 min,"[3]; values not exact, read-out: Solubility in water",160 mg/mL
same,solubility at 5 min,[3]; read-out: water solubility,~160 mg/mL
same,OFS (surface tension),[2]; [6],29.74* mN/m
same,OFS (surface tension),[2]; [7],24.94 mN/m
"Cl.Cn1ccnc1SCCC(F)(F)C(F)(F)C(F)(F)C(F)(F)C(F)(F)C(F)(F)F [1-methyl-2-((1H,1H,2H,2H-perfluorooctyl)thio)imidazoliumchloride]",Solubility in water,[3]; values not exact,1750 mg/mL
1-methyl-2-((perfluorohexylethyl)thio)imidazoliumiodide-Co-1-iodoperfluorooctylane [1-iodoperfluorooctyl-Co-complex],Solubility in 3M Novec 71 IPA,[4],20.5 mg/mL
"1-methyl-2-((1H,1H,2H,2H-perfluorooctyl)thio)-1H-imidazolium-2-(methacryloyloxy)ethane-1-sulfonate [Synthesis Example 1]",Solubility in water,"[3]; approximately 23° C., ultrasound bath 5 minutes, centrifuged 20 minutes",approximately 430 g/L
same,OFS (surface tension),[2]; c 0.005 % in water,70.28 mN/m
same,OFS (surface tension),[2]; c 0.01 % in water,32.11 mN/m
same,OFS (surface tension),[2]; c 0.1 % in water,20.8 mN/m
same,OFS (surface tension),[2]; [6],23.24 mN/m
same,OFS (surface tension),[2]; [7],16.22 mN/m
"CC1(C)C2CCC1(CS(=O)(=O)O)C(=O)C2.Cn1ccnc1SCCC(F)(F)C(F)(F)C(F)(F)C(F)(F)C(F)(F)C(F)(F)F [1-methyl-2-((1H,1H,2H,2H-perfluorooctyl)thio)imidazolium-(±)-camphor-10-sulfonate]",Solubility in water,[3]; values not exact,>4000 mg/mL
"C=CC(=O)NC(C)(C)CS(=O)(=O)O.Cn1ccnc1SCCC(F)(F)C(F)(F)C(F)(F)C(F)(F)C(F)(F)C(F)(F)F [Synthesis Example 2, 1-methyl-2-((1H,1H,2H,2H-perfluorooctyl)thio)-1H-imidazolium-2-acrylamido-2-methylpropanesulfonate]",soluble in water (in words),[3],soluble in water
same,time the Teflon suspension remained stable,[5],at least 4 hours
"Br.Cn1ccnc1SCCC(F)(F)C(F)(F)C(F)(F)C(F)(F)C(F)(F)C(F)(F)F [1-methyl-2-((1H,1H,2H,2H-perfluorooctyl)thio)imidazoliumbromide]",Solubility in water,[3]; values not exact,1200 mg/mL
"O=C(O)C(F)(F)C(F)(F)C(F)(F)C(F)(F)C(F)(F)C(F)(F)C(F)(F)F [Perfluorooctanoic acid, reference compound]",OFS (surface tension),[2]; [6],55.68** mN/m
same,OFS (surface tension),[2]; [7],16 mN/m
